What was measured:
[1] = molecular target: ALK tyrosine kinase receptor (Homo sapiens, UniProt Q9UM73); assay: Inhibition of human recombinant ALK assessed as phosphorylated product using PLC-gamma/GST substrate by modified ELISA method
Insulin receptor = Insulin receptor (Homo sapiens, UniProt P06213); assay: Inhibition of IR
[2] = molecular target: NPM/ALK (Nucleophosmin/ALK tyrosine kinase receptor) (Homo sapiens, UniProt Q9UM73); assay: Inhibition of NPM/ALK phosphorylation in human KARPAS299 cells by ELISA; assay type: cell-based, KARPAS-299
[3] = Oral bioavailability in Sprague-Dawley rat; assay type: ADME, organism-based; details: in vivo
[4] = Antitumor activity against human SUP-M2 cells xenografted into SCID mouse at 30 mg/kg, po bid; assay type: functional; details: read-out: TGI
[5] = Antitumor activity against human SUP-M2 cells xenografted into SCID mouse at 55 mg/kg, po administered bid; assay type: functional; details: read-out: TGI
Mus musculus [6] = assay: Toxicity in SCID mouse assessed as weight loss at 10 mg/kg, po bid; assay type: organism-based; set-up: dose 10 mg/kg, route oral; details: in vivo
Mus musculus [7] = assay: Toxicity in SCID mouse assessed as weight loss at 55 mg/kg, po bid; assay type: organism-based; set-up: dose 55 mg/kg, route oral; details: in vivo
Mus musculus [8] = assay: Toxicity in SCID mouse assessed as weight loss at 30 mg/kg, po bid; assay type: organism-based; set-up: dose 30 mg/kg, route oral; details: in vivo
[9] = Oral bioavailability in Sprague-Dawley rat at 5 mg/kg; assay type: ADME, organism-based; details: in vivo
[10] = Plasma concentration in human SUP-M2 cells xenografted SCID mouse at 55 mg/kg, po bid for 12 days measured after 2 hrs of final dose by LC/MS analysis; assay type: ADME, organism-based; set-up: dose 55 mg/kg, route oral
[11] = Antitumor activity against human SUP-M2 cells xenografted into SCID mouse at 10 mg/kg, po bid; assay type: functional; details: read-out: TGI
[12] = Tmax in Sprague-Dawley rat at 5 mg/kg, po; assay type: ADME, organism-based; set-up: dose 5 mg/kg, route oral; details: in vivo
[13] = Drug level in human SUP-M2 cells xenografted SCID mouse tumor at 30 mg/kg, po after 24 hrs by LC/MS analysis; assay type: ADME, organism-based, Neoplasm; set-up: dose 30 mg/kg, route oral; details: read-out: Drug uptake
[14] = Antiproliferative activity against human SUP-M2 cells after 48 hrs by MTS assay; assay type: functional, cell-based; details: SUP-M2, 48 h
[15] = Oral bioavailability in SCID mouse at 10 mg/kg; assay type: ADME, organism-based; details: in vivo
[16] = AUC in Sprague-Dawley rat at 1 mg/kg, iv; assay type: ADME, organism-based; set-up: dose 1 mg/kg, route intravenous; details: plasma
[17] = Drug level in human SUP-M2 cells xenografted SCID mouse tumor at 30 mg/kg, po after 2 hrs by LC/MS analysis; assay type: ADME, organism-based, Neoplasm; set-up: dose 30 mg/kg, route oral; details: read-out: Drug uptake
[18] = Plasma concentration in human SUP-M2 cells xenografted SCID mouse at 30 mg/kg, po measured after 24 hrs by LC/MS analysis; assay type: ADME, organism-based; set-up: dose 30 mg/kg, route oral
KARPAS-299 = assay: Antiproliferative activity against human KARPAS299 cells by MTS assay; assay type: functional, cell-based
[19] = Tmax in SCID mouse at 10 mg/kg, po; assay type: ADME, organism-based; set-up: dose 10 mg/kg, route oral; details: in vivo
[20] = Plasma concentration in human SUP-M2 cells xenografted SCID mouse at 10 mg/kg, po bid for 12 days measured after 2 hrs of final dose by LC/MS analysis; assay type: ADME, organism-based; set-up: dose 10 mg/kg, route oral
[21] = Plasma concentration in human SUP-M2 cells xenografted SCID mouse at 30 mg/kg, po bid for 12 days measured after 2 hrs of final dose by LC/MS analysis; assay type: ADME, organism-based; set-up: dose 30 mg/kg, route oral
[22] = AUC in SCID mouse at 10 mg/kg, po; assay type: ADME, organism-based; set-up: dose 10 mg/kg, route oral; details: plasma
[23] = AUC in SCID mouse at 1 mg/kg, iv; assay type: ADME, organism-based; set-up: dose 1 mg/kg, route intravenous; details: plasma
[24] = Plasma concentration in human SUP-M2 cells xenografted SCID mouse at 30 mg/kg, po measured after 2 hrs by LC/MS analysis; assay type: ADME, organism-based; set-up: dose 30 mg/kg, route oral
[25] = Inhibition of NPM-ALK phosphorylation in SUP-M2 cells xenografted in SCID mouse at 30 mg/kg, po measured upto 12 hrs by immunoblotting; assay type: functional; details: SUP-M2, 12 h
[26] = Drug level in human SUP-M2 cells xenografted SCID mouse tumor at 30 mg/kg, po bid for 12 days measured after 2 hrs of final dose by LC/MS analysis; assay type: ADME, organism-based, Neoplasm; set-up: dose 30 mg/kg, route oral; details: read-out: Drug uptake
[27] = Drug level in human SUP-M2 cells xenografted SCID mouse tumor at 10 mg/kg, po bid for 12 days measured after 2 hrs of final dose by LC/MS analysis; assay type: ADME, organism-based, Neoplasm; set-up: dose 10 mg/kg, route oral; details: read-out: Drug uptake
[28] = Drug level in human SUP-M2 cells xenografted SCID mouse tumor at 30 mg/kg, po after 12 hrs by LC/MS analysis; assay type: ADME, organism-based, Neoplasm; set-up: dose 30 mg/kg, route oral; details: read-out: Drug uptake
[29] = Volume of distribution in Sprague-Dawley rat at 1 mg/kg, iv; assay type: ADME, organism-based; set-up: dose 1 mg/kg, route intravenous; details: in vivo
[30] = Plasma concentration in human SUP-M2 cells xenografted SCID mouse at 30 mg/kg, po measured after 12 hrs by LC/MS analysis; assay type: ADME, organism-based; set-up: dose 30 mg/kg, route oral
[31] = Volume of distribution in SCID mouse at 1 mg/kg, iv; assay type: ADME, organism-based; set-up: dose 1 mg/kg, route intravenous; details: in vivo
[32] = Apparent permeability from apical to basolateral side of human Caco2 cells; assay type: ADME, cell-based; details: Caco-2
[33] = AUC in Sprague-Dawley rat at 5 mg/kg, po; assay type: ADME, organism-based; set-up: dose 5 mg/kg, route oral; details: plasma
[34] = Drug level in human SUP-M2 cells xenografted SCID mouse tumor at 30 mg/kg, po after 6 hrs by LC/MS analysis; assay type: ADME, organism-based, Neoplasm; set-up: dose 30 mg/kg, route oral; details: read-out: Drug uptake
[35] = Plasma concentration in human SUP-M2 cells xenografted SCID mouse at 30 mg/kg, po measured after 6 hrs by LC/MS analysis; assay type: ADME, organism-based; set-up: dose 30 mg/kg, route oral

ALK tyrosine kinase receptor, sequence (Q9UM73 whole entry): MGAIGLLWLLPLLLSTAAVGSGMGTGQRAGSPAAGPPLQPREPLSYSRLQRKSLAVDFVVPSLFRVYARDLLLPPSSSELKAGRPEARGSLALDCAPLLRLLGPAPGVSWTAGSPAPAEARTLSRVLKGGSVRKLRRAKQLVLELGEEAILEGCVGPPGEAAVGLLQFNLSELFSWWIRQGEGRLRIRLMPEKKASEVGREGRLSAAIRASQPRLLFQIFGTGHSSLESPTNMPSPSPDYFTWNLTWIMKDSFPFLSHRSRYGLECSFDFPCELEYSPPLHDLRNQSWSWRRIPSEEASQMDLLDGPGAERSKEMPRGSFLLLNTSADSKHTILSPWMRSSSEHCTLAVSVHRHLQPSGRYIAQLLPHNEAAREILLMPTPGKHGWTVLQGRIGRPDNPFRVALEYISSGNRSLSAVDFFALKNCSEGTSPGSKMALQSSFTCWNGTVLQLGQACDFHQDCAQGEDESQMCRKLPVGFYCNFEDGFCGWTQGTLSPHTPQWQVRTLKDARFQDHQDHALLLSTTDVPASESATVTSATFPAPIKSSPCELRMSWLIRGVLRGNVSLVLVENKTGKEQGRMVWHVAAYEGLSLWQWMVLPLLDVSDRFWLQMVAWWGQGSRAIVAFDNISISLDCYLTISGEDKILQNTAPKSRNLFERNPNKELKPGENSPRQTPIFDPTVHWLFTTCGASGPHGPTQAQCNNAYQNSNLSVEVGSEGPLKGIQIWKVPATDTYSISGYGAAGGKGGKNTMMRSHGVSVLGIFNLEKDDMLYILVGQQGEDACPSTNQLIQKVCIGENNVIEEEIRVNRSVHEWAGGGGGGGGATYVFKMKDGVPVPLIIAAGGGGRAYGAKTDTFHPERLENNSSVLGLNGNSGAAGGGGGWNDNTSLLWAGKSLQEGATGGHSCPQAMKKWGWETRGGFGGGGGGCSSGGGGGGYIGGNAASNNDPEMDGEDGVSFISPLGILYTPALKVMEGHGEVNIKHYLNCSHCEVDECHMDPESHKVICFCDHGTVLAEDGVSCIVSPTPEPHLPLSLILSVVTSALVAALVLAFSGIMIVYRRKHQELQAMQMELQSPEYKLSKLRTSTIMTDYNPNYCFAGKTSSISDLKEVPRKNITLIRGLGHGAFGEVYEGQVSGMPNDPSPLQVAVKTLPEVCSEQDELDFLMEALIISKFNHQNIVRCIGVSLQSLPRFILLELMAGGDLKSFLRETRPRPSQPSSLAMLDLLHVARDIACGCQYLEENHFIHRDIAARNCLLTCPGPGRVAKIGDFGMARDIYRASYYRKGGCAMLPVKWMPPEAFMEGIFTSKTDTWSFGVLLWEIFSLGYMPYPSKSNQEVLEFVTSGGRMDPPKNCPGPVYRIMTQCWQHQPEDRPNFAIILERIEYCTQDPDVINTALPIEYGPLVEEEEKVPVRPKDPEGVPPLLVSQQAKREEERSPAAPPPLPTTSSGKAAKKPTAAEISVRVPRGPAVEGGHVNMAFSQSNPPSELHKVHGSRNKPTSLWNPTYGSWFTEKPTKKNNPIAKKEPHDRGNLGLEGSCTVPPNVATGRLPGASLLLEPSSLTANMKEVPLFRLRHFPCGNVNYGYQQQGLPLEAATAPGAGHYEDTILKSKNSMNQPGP
NPM/ALK (Nucleophosmin/ALK tyrosine kinase receptor), sequence (Q9UM73 whole entry): as above
NPM/ALK (Nucleophosmin/ALK tyrosine kinase receptor), sequence (P06748 whole entry, further chain): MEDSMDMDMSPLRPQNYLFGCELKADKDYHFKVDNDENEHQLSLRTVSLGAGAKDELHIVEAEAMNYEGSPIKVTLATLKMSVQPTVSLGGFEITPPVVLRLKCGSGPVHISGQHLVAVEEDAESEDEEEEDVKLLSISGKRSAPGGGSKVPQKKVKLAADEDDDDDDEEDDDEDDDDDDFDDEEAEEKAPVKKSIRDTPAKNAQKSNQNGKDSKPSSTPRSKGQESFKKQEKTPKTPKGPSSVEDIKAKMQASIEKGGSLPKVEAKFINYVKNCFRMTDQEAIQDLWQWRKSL
Insulin receptor, sequence (P06213 28-758 limits assumed): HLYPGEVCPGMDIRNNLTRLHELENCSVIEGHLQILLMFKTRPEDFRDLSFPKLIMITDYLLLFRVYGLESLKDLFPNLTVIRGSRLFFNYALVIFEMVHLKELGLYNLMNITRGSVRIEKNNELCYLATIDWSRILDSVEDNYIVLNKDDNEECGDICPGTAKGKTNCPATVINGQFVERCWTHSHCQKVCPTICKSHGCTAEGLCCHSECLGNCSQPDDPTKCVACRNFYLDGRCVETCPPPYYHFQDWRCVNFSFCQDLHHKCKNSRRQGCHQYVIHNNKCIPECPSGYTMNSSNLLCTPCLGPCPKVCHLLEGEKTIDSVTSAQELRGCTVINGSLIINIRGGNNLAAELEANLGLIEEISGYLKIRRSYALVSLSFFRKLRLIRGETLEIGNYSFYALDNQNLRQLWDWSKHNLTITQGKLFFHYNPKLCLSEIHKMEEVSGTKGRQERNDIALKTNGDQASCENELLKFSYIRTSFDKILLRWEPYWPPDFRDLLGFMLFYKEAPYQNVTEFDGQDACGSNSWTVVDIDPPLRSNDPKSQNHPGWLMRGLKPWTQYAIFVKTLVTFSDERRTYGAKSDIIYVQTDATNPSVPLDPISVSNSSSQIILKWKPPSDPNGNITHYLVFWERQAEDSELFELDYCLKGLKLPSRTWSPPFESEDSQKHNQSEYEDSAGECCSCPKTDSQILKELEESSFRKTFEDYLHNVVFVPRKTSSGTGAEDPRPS
Insulin receptor, sequence (P06213 763-1382 limits assumed): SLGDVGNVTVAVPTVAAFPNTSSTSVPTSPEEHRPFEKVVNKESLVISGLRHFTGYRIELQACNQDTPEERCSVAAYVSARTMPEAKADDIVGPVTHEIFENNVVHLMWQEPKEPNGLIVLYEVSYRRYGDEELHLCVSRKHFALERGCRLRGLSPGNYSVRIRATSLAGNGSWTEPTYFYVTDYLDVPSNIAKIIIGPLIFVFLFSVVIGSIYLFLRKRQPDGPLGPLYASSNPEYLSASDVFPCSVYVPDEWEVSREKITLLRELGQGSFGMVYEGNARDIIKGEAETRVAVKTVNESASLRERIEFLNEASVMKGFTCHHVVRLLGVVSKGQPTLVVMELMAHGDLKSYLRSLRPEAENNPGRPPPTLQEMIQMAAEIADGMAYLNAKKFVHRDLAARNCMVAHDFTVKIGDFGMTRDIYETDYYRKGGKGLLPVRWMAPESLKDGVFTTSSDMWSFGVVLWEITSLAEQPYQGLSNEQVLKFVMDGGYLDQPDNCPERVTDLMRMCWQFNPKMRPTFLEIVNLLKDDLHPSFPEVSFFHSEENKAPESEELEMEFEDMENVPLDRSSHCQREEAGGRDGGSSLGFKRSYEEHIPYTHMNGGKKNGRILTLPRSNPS

In the case of `CN1CCN(c2ccc(Nc3ncc4ccc(-c5ccccc5NS(C)(=O)=O)n4n3)cc2)CC1`, the IC50 [1] is reported as 260 nM and the IC50 (Insulin receptor) is reported as 1870 nM.

Work on `COc1cc(N2CCN(C)CC2)ccc1Nc1ncc2ccc(-c3ccccc3OC)n2n1` yielded an IC50 [2] of 100 nM, an IC50 [1] of 9 nM and an IC50 (Insulin receptor) of 391 nM.

In the case of `COc1cc(N2CCN(C[C@H](C)O)CC2)ccc1Nc1ncc2ccc(-c3ccccc3OC)n2n1`, the IC50 [2] is reported as 100 nM, the bioavailability [3] is reported as 8% and the IC50 [1] is reported as 5 nM. The IC50 (Insulin receptor) was 206 nM.

For `COc1cc(N2CCN(C[C@@H](C)O)CC2)ccc1Nc1ncc2ccc(-c3ccccc3OC)n2n1`, the IC50 [2] was 80 nM, the bioavailability [3] was 6% and the IC50 [1] was 3.8 nM. It also gave an IC50 (Insulin receptor) of 160 nM.

`COc1cc(N2CCN(N3CCOCC3)CC2)ccc1Nc1ncc2ccc(-c3ccccc3OC)n2n1` gave an inhibition in vivo at 30 mg/kg [4] of 60%, an inhibition in vivo at 55 mg/kg [5] of 98% and an IC50 [2] of 85 nM. For the same compound, the Activity (Mus musculus [6]) was “Non-toxic”, the bioavailability [3] was 34% and the Activity (Mus musculus [7]) was “Non-toxic”. For the same compound, the IC50 [1] was 9 nM, the Activity (Mus musculus [8]) was “Non-toxic” and the IC50 (Insulin receptor) was 357 nM.

With `COc1cc(N2CCN(C)CC2)ccc1Nc1ncc2ccc(-c3ccccc3N(C)S(C)(=O)=O)n2n1` the IC50 [2] was 200 nM, the IC50 [1] was 9 nM and the IC50 (Insulin receptor) was 934 nM.

Compound `COc1cc(N2CCN(C[C@H](C)O)CC2)ccc1Nc1ncc2ccc(-c3ccccc3N(C)S(C)(=O)=O)n2n1` has a bioavailability [9] of 38%, a concentration at 2 h [10] of 2890 ng/mL and an inhibition in vivo at 10 mg/kg [11] of 35%. The Tmax [12] was 2 h, the concentration at 24 h [13] was under 30 ng/g and the inhibition in vivo at 30 mg/kg [4] was 81%. The IC50 [14] was 87 nM, the inhibition in vivo at 55 mg/kg [5] was 98% and the bioavailability [15] was 36%. The AUC [16] was 343 ng·h/mL, the concentration at 2 h [17] was 1440 ng/g and the concentration at 24 h [18] was under 10 ng/mL. The IC50 (KARPAS-299) was 477 nM, the Tmax [19] was 1 h and the bioavailability [3] was 38%. The concentration at 2 h [20] was 516 ng/mL, the concentration at 2 h [21] was 1580 ng/mL and the AUC [22] was 2520 ng·h/mL. For the same compound, the AUC [23] was 661 ng·h/mL, the concentration at 2 h [24] was 2160 ng/mL and the inhibition in vivo at 30 mg/kg [25] was 75%. It also gave a concentration at 2 h [26] of 3120 ng/g, a concentration at 2 h [27] of 1530 ng/g and a concentration at 12 h [28] of 235 ng/g. For the same compound, the Vd [29] was 3.3 L/kg, the concentration at 12 h [30] was 155 ng/mL and the Vd [31] was 2.1 L/kg. It also gave a Papp A→B [32] of 20.3 ×10⁻⁶ cm/s, an AUC [33] of 610 ng·h/mL and a concentration at 6 h [34] of 792 ng/g. For the same compound, the concentration at 6 h [35] was 950 ng/mL.

In the case of `COc1cc(N2CCN(C[C@@H](C)O)CC2)ccc1Nc1ncc2ccc(-c3ccccc3N(C)S(C)(=O)=O)n2n1`, the bioavailability [3] is reported as 41%.

In the case of `COc1cc(N2CCC(N3CCOCC3)CC2)ccc1Nc1ncc2ccc(-c3ccccc3N(C)S(C)(=O)=O)n2n1`, the inhibition in vivo at 30 mg/kg [4] is reported as 50%, the inhibition in vivo at 55 mg/kg [5] is reported as 96% and the IC50 [2] is reported as 50 nM. For the same compound, the Activity (Mus musculus [6]) was “Non-toxic”, the bioavailability [3] was 47% and the Activity (Mus musculus [7]) was “Non-toxic”. For the same compound, the IC50 [1] was 7 nM, the Activity (Mus musculus [8]) was “Non-toxic” and the IC50 (Insulin receptor) was 809 nM.
